Test results from patent US10906977B2, “Enhancing the therapeutic activity of immune checkpoint inhibitor” (Maine Medical Center Research Institute, priority 2016, dated 2021).

How the values were obtained:
T-cell (Jurkat) = experiment: T-cell migration on denatured collagen type-IV (transwell); format: cell-based, human; conditions: P2 1.0 ug/ml; FIG. 34
Experimental: Membranes of transwell migration chambers were coated with denatured collagen type-IV to mimic the altered basement membrane in tumor vessels. Left). T-cell (Jurkat) migration in the presence or absence of the cryptic collagen peptide P2 (1.0 ug/ml) and/or Mab XL313 and non-specific control antibody (50 μg/ml). Right). T-cell (Jurkat) migration in the presence or absence of Raw macrophage concentrated conditioned medium (CM) and/or Mab XL313 and non-specific control antibody (50 μg/ml). Data bars represent mean cell migration+SE from triplicate wells.

Src = Src phosphorylation in endothelial cells attached to collagen peptides (Western blot); format: cell-based, human; conditions: FIG. 7D
Experimental: Whole cell and CAM tissue lysates were collected in RIPA buffer supplemented with 1× protease inhibitor and 1× phosphatase inhibitor and were run on polyacrylamide gels using denaturing conditions. Prior to loading the gels, 6× sample buffer was added to each of the lysates (final concentration 1×) and boiled for five minutes. Twenty to 50 μg of total protein were loaded into each lane. […] Gels were run at 60 volts (v) until the dye front passed through the stacking gel, and then the voltage was increased to 100V for the remainder of the separation. Precision Plus protein standards (Bio-Rad) were used to visualize migration. Protein was transferred to nitrocellulose membranes using a wet tank system and blocked for 1 h using 10% non-fat dried milk in tris-buffered saline with 0.01% Tween-20 (TBS-T). […] Membranes were washed 3 times in TBS-T for five minutes. Blots were then incubated with HRP conjugated secondary antibodies (1:15000) in 1% non-fat milk in TBS-T for 1 h. Membranes were washed a second time as indicated above and exposed to chemiluminecent substrate for three minutes prior to exposure to autoradiography film in a dark room. Western blot bands were quantified using Image J software based on pixel intensity.

LAG3 = experiment: Checkpoint molecule expression in human T-cell lines stimulated with collagen peptides (Western blot); format: cell-based; conditions: Jurkat and CCL120.1; FIG. 35
Experimental: In order to confirm the functional ability of the XL313 cryptic collagen peptide P2 to regulate expression of the immune suppressive checkpoint molecule LAG3, αvβ3 expressing human T-cell lines Jurkat and CCL120.1 were stimulated with the cryptic collagen peptide P2 or control collagen peptides P1 or PC. Whole cell lysates from were analyzed for expression of PD-L1 and beta actin (β-Actin).

[1] = tested on: endothelial cells transduced with YAP specific or non-specific shRNAs; experiment: Growth of shRNA transduced endothelial cells with soluble RGD peptides; format: cell-based, human
Experimental: HUVECs (WT, shYAP1 or control transfected) or HRMVECs were plated at 2,000 cells per well with complete EGM-2 media containing 2.0% FBS in the absence or presence of P-1, P-2 or P-C (100 ng/ml) and allowed to grow for 24 hours. Cell growth was monitored using a BrdU or MMT assay kits according to manufacturer's instructions. All assays were completed at least three times in triplicate wells.
Raw cells were transfected with 1 μg of HuSH shRNA plasmids for collagen type I, alpha 2 using Amaxa cell line nucleofector kit V (program #T024). Constructs expressing 21-nucleotide short hairpin RNAs (shRNA) targeting human YAP (shYAP) or non-targeting control (shNT, Sigma-Aldrich, SHC002) were used. Humantargeting shYAP1 lentiviral shRNA was obtained from the Thermo Scientific RNAi consortium (TRCN0000107625). Constructs were packaged into lentivirus, pseudotyped with the vesicular stomatitis virus glycoprotein. Transduction was performed by incubating cells with lentivirus, and stably transduced cells were subsequently used for studies. All cell lines were verified by morphology and mouse and human YAP-specific PCR. […] Endothelial cells were certified mycoplasma-negative by PCR (Lonza), and primary cell cultures were used within the indicated passage numbers. Cells were transduced and selected using puromycin.

[2] = tested on: chick chorioallantoic membrane (CAM); experiment: Chick CAM inflammation induced by soluble RGD collagen peptides; format: in vivo; conditions: FIG. 5D
Experimental: (§1) The chick chorioallantoic membrane (CAM) assays were carried out with some modifications (19). For all experiments CAMs of 10-day-old chick embryos obtained from Charles River (North Franklin, Conn.) were separated from the shell membrane. Filter discs either non-treated (inflammation assays) pretreated (angiogenesis assays) with cortisone acetate (3.0 mg/ml) containing RPMI only or FGF-2 (40 ng). CAMs were either non-treated or treated topically with Mab XL313, XL166 or a non-specific control antibody (10 μg/embryo every 24 h for three consecutive treatments). […] At the end of the incubation period the embryos were sacrificed and the CAM tissues were analyzed. Angiogenesis was quantified by counting the number of angiogenic branching blood vessels within the area of the filter disc. The angiogenic index was determined by subtracting the mean number of blood vessel branch points from untreated CAMs from each experimental condition. Eight to twelve embryos were used per condition and experiments were repeated at least three times.

P38MAPK = experiment: Phosphorylated P38MAPK in CAM tissue lysates (Western blot); format: in vivo, chick; conditions: peptide treated CAMs; FIG. 6B
Experimental: as §1, with “For all experiments CAMs of 10-day-old chick embryos obtained from Charles River (North Franklin, Conn.) were separated from the shell membrane.” left out
Whole cell and CAM tissue lysates were collected in RIPA buffer supplemented with 1× protease inhibitor and 1× phosphatase inhibitor and were run on polyacrylamide gels using denaturing conditions. Prior to loading the gels, 6× sample buffer was added to each of the lysates (final concentration 1×) and boiled for five minutes. Twenty to 50 μg of total protein were loaded into each lane. […] Western blot bands were quantified using Image J software based on pixel intensity.

CQGPRGDKGEC [Mab P-2] was tested, and the “effect on T-cell migration” value (T-cell (Jurkat)) was “inhibitory effects”, the “enhancement of Src phosphorylation as compared to P-1” value (Src) was ~2 fold and the “expression of LAG3 in human T-cells” value (LAG3) was “induces expression of the immunosuppressive molecule LAG3”. For the same sequence, the “levels of PD-L1 in stimulated T-cells as compared to controls” value (LAG3) was “clear increase in the levels of PD-L1”, the “growth of endothelial cells in which YAP was knocked down” value ([1]; YAP specific shRNA, FIG. 8H) was “failed to induce growth” and the “growth of control transduced endothelial cells with soluble peptide” value ([1]; non-specific shRNA, FIG. 8G) was “enhanced growth”. For the same sequence, the “CAM inflammation following stimulation with peptide” value [2] was “induced inflammation to nearly that of FGF-2 stimulation” and the “increase in phosphorylation of P38MAPK in CAM tissues as compared to controls” value (P38MAPK) was 4 fold.
